The nature of series [1]: Solubility of MPS in DMSO as time passes after manufacture. Format: physicochemical. As for the experimental part: No matter what kind of foregoing method, the product must be dissolved in organic solvent within 30 minutes. The solubility of MPS in aqueous phase or organic phase solvents will decrease as time passes.
The nature of series [2]: Tests of preserving method: MPS dissolution and self-assembly of gold nanoparticles on MPS-modified glass substrate. Format: physicochemical. As to the method:
Performing the tests of three preserving methods that preserve MPS under atmospheric condition, under nitrogen and in organic solvent.
Most silane molecules in general are placed in a brown bottle and stored at 4° C. To investigate the preservation conditions for MPS, the efficiency of the self-assembly reaction of gold nanoparticles on the MPS-modified substrate is used as an indirect indicator. There are two advantages by this approach. First, gold nanoparticles have a characteristic surface plasmon resonance band which can be easily observed in a visible light spectrum and its absorbance is related to the surface coverage of the nanoparticles modified on the surface of the substrate. Second, the peak width of the surface plasmon resonance band is related to the uniformity of the gold nanoparticles distributed on the surface of the substrate. In the present study, gold nanoparticles with 13 nm in diameter are chosen, and the characteristic absorption peak is about 530 nm. After synthesis, purified and dried MPS are separately stored under atmospheric condition at 4° C. and in a brown bottle at room temperature under nitrogen.
If the purified MPS is dissolved in organic solvent and then preserved under atmospheric condition and room temperature without avoiding light, the activity of the sample can be preserved for at least 1 year and 6 months (ex. 1 year and 7 months) (referring to FIG. 3(a)).
The activity of the sample is tested with the self-assembly reaction of gold nanoparticles on the surface of the substrate treated by the sample and then observed by visible light spectroscopy and scanning electron microscopy. The results are shown in FIG. 4(a) and FIG. 4(b) wherein, all experiments are performed by immersing the substrate in a methanol solution of MPS and then modifying gold nanoparticles on the treated substrate for 30 minutes.

The source of these data is US20160264602A1, “MANUFACTURING METHOD OF SILATRANE WITH THIOL GROUP AND PRESERVATION METHOD THEREOF” (NATIONAL CHUNG CHENG UNIVERSITY, priority 2015, published 2016).

For the compound `SCCC[Si]12OCCN(CCO1)CCO2` [MPS, (3-mercaptopropyl)silatrane], the “solubility of MPS in dimethyl sulfoxide (DMSO)” value is “about 40%” in series [1] (after 1 week), “about 99%” in series [1] (after 30 minutes) and “about 90%” in series [1] (after 1 day). Besides, the “dissolution of preserved sample” value in series [2] (purified and dried MPS in brown bottle at room temperature under nitrogen, after 5 weeks) was “cannot be dissolved”; in series [2] (purified and dried MPS under atmospheric condition at 4° C., after 3 weeks), “cannot be dissolved in any solvent”. For the same compound, the “time for which MPS can be preserved” value in series [2] (traditional nitrogen preservation method under dark condition) is “about two”.
